# Data as given in EP2057188B1 (priority 2006, dated 2008).
# Where two headings read alike, the source gives them in different places. Ends that are not written are not given here.
# Key:
# [1] = assay type: in vivo, NIH/Swiss mice; settings: 80 nmol/Kg; AUC240
# Description: Gavage (1.5g/kg) was given at t=0. Sample was taken at t=30 min.
# [2] = cited from earlier work; for EC(50): inhibition of gastric emptying, subcutaneous; for inhibition of gastric emptying: at doses of 100µg
compound,measurement,setting,value
CC[C@H](C)[C@H](NC(=O)[C@H](CO)NC(=O)[C@H](Cc1ccc(O)cc1)NC(=O)[C@H](CC(=O)O)NC(=O)[C@H](CO)NC(=O)[C@@H](NC(=O)[C@H](Cc1ccccc1)NC(=O)[C@@H](NC(=O)CNC(=O)[C@H](CCC(=O)O)NC(=O)[C@@H](C)NC(=O)[C@@H](N)Cc1ccc(O)cc1)[C@@H](C)O)[C@@H](C)CC)C(=O)N[C@@H](C)C(=O)N[C@@H](CCSC)C(=O)N[C@@H](CC(=O)O)C(=O)N[C@@H](CCCCN)C(=O)N[C@H](C(=O)N[C@@H](Cc1c[nH]cn1)C(=O)N[C@@H](CCC(N)=O)C(=O)N[C@@H](CCC(N)=O)C(=O)N[C@@H](CC(=O)O)C(=O)N[C@@H](Cc1ccccc1)C(=O)N[C@H](C(=O)N[C@@H](CC(N)=O)C(=O)N[C@@H](Cc1c[nH]c2ccccc12)C(=O)N[C@@H](CC(C)C)C(=O)N[C@@H](CC(C)C)C(=O)N[C@@H](C)C(=O)N[C@@H](CCC(N)=O)C(=O)N[C@@H](CCCCN)C(=O)N1CCC[C@H]1C(=O)N[C@@H](CCCCN)C(=O)NCC(=O)N[C@@H](CCCCN)C(=O)NCC(=O)N[C@@H](CCCCN)C(=O)N[C@@H](CO)C(N)=O)C(C)C)[C@@H](C)CC [0601GIP4700],Basal Glucose Lowering at 80 nmol/Kg,[1],"-6%, AUC240"
CC[C@H](C)[C@H](NC(=O)[C@H](CO)NC(=O)[C@H](Cc1ccc(O)cc1)NC(=O)[C@H](CC(=O)O)NC(=O)[C@H](CO)NC(=O)[C@@H](NC(=O)[C@H](Cc1ccccc1)NC(=O)[C@@H](NC(=O)CNC(=O)[C@H](CCC(=O)O)NC(=O)[C@@H](C)NC(=O)[C@@H](N)Cc1ccc(O)cc1)[C@@H](C)O)[C@@H](C)CC)C(=O)N[C@@H](C)C(=O)N[C@@H](CCSC)C(=O)N[C@@H](CC(=O)O)C(=O)N[C@@H](CCCCN)C(=O)N[C@H](C(=O)N[C@@H](Cc1c[nH]cn1)C(=O)N[C@@H](CCC(N)=O)C(=O)N[C@@H](CCC(N)=O)C(=O)N[C@@H](CC(=O)O)C(=O)N[C@@H](Cc1ccccc1)C(=O)N[C@H](C(=O)N[C@@H](CC(N)=O)C(=O)N[C@@H](Cc1c[nH]c2ccccc12)C(=O)N[C@@H](CC(C)C)C(=O)N[C@@H](CC(C)C)C(=O)N[C@@H](C)C(=O)N[C@@H](CCC(N)=O)C(=O)N[C@@H](CCCCN)C(=O)N1CCC[C@H]1C(=O)N[C@@H](CO)C(=O)N[C@@H](CCCCN)C(=O)N[C@@H](CCC(=O)O)C(=O)N[C@H](C(=O)N[C@H](C(=O)N[C@@H](CO)C(N)=O)[C@@H](C)CC)[C@@H](C)CC)C(C)C)[C@@H](C)CC [Compound 0601GIP4234],Basal Glucose Lowering at 80 nmol/Kg,[1],"-11%, AUC240"
Secretin: peptide compared for inhibition of gastric emptying in conscious rats,EC(50),[2]; conscious rats ~200g,1.87 µg
same,EC(50),[2]; conscious rats,3.09 nmol/kg
"PACAP38: pituitary adenylate cyclase activating peptide (HSDGIFTDSYSRYRKQMAVKKYLAAVLGKRYKQRVKNK-NH2; ends and bridges not checked; UniProt P18509 132-169, looked up)",inhibition of gastric emptying,[2],weakly active or inactive
"somatostatin: peptide compared for inhibition of gastric emptying in conscious rats (AGCKNFFWKTFTSC; ends and bridges not checked; cysteine pairing not given here; UniProt P61278 103-116, looked up)",inhibition of gastric emptying,[2],weakly active or inactive
"Rat calcitonin: peptide compared for inhibition of gastric emptying in conscious rats (CGNLSTCMLGTYTQDLNKFHTFPQTSIGVGAP; ends and bridges not checked; cysteine pairing not given here; UniProt P01257 85-116, looked up)",EC(50),[2]; conscious rats ~200g,0.64 µg
same,EC(50),[2]; conscious rats,0.94 nmol/kg
CC[C@H](C)[C@H](NC(=O)[C@H](CO)NC(=O)[C@H](Cc1ccc(O)cc1)NC(=O)[C@H](CC(=O)O)NC(=O)[C@H](CO)NC(=O)[C@@H](NC(=O)[C@H](Cc1ccccc1)NC(=O)[C@@H](NC(=O)CNC(=O)[C@H](CCC(=O)O)NC(=O)[C@@H](C)NC(=O)[C@@H](N)Cc1ccc(O)cc1)[C@@H](C)O)[C@@H](C)CC)C(=O)N[C@@H](C)C(=O)N[C@@H](CCSC)C(=O)N[C@@H](CC(=O)O)C(=O)N[C@@H](CCCCN)C(=O)N[C@H](C(=O)N[C@@H](Cc1c[nH]cn1)C(=O)N[C@@H](CCC(N)=O)C(=O)N[C@@H](CCC(N)=O)C(=O)N[C@@H](CC(=O)O)C(=O)N[C@@H](Cc1ccccc1)C(=O)N[C@H](C(=O)N[C@@H](CC(N)=O)C(=O)N[C@@H](Cc1c[nH]c2ccccc12)C(=O)N[C@@H](CC(C)C)C(=O)N[C@@H](CC(C)C)C(=O)N[C@@H](C)C(=O)N[C@@H](CCC(N)=O)C(=O)N[C@@H](CCCCN)C(=O)N[C@H](C(=O)N[C@@H](CO)C(=O)N1CCC[C@H]1C(=O)N[C@@H](CCCNC(=N)N)C(=O)N1CCC[C@H]1C(=O)N1CCC[C@H]1C(=O)N[C@@H](CO)C(N)=O)[C@@H](C)O)C(C)C)[C@@H](C)CC [Compound 0601GIP4236],Basal Glucose Lowering at 80 nmol/Kg,[1],"-12%,"
neuropeptide Y: peptide compared for inhibition of gastric emptying in conscious rats,inhibition of gastric emptying,[2],weakly active or inactive
"Gastrin releasing peptide: peptide compared for inhibition of gastric emptying in conscious rats (VPLPAGGGTVLTKMYPRGNHWAVGHLM; ends and bridges not checked; UniProt P07492 24-50, looked up)",EC(50),[2]; conscious rats ~200g,28.5 µg
same,EC(50),[2]; conscious rats,49.9 nmol/kg
CC[C@H](C)[C@H](NC(=O)[C@H](CO)NC(=O)[C@H](Cc1ccc(O)cc1)NC(=O)[C@H](CC(=O)O)NC(=O)[C@H](CO)NC(=O)[C@@H](NC(=O)[C@H](Cc1ccccc1)NC(=O)[C@@H](NC(=O)CNC(=O)[C@H](CCC(=O)O)NC(=O)[C@@H](C)NC(=O)[C@@H](N)Cc1ccc(O)cc1)[C@@H](C)O)[C@@H](C)CC)C(=O)N[C@@H](C)C(=O)N[C@@H](CCSC)C(=O)N[C@@H](CC(=O)O)C(=O)N[C@@H](CCCCN)C(=O)N[C@H](C(=O)N[C@@H](Cc1c[nH]cn1)C(=O)N[C@@H](CCC(N)=O)C(=O)N[C@@H](CCC(N)=O)C(=O)N[C@@H](CC(=O)O)C(=O)N[C@@H](Cc1ccccc1)C(=O)N[C@H](C(=O)N[C@@H](CC(N)=O)C(=O)N[C@@H](Cc1c[nH]c2ccccc12)C(=O)N[C@@H](CC(C)C)C(=O)N[C@@H](CC(C)C)C(=O)N[C@@H](C)C(=O)N[C@@H](CCC(N)=O)C(=O)N[C@@H](CCCCN)C(=O)NCCC(=O)NCCC(=O)N1CCC[C@H]1C(=O)N[C@@H](CCCCN)C(=O)N[C@@H](CCCCN)C(=O)N[C@H](C(=O)N[C@@H](CCCNC(=N)N)C(=O)N[C@@H](Cc1ccc(O)cc1)C(=O)N[C@@H](CO)C(N)=O)[C@@H](C)CC)C(C)C)[C@@H](C)CC [0601GIP4648],Basal Glucose Lowering at 80 nmol/Kg,[1],"-8%, AUC240"
CC[C@H](C)[C@H](NC(=O)[C@H](CO)NC(=O)[C@H](Cc1ccc(O)cc1)NC(=O)[C@H](CC(=O)O)NC(=O)[C@H](CO)NC(=O)[C@@H](NC(=O)[C@H](Cc1ccccc1)NC(=O)[C@@H](NC(=O)CNC(=O)[C@H](CCC(=O)O)NC(=O)[C@@H](C)NC(=O)[C@@H](N)Cc1ccc(O)cc1)[C@@H](C)O)[C@@H](C)CC)C(=O)N[C@@H](C)C(=O)N[C@@H](CCSC)C(=O)N[C@@H](CC(=O)O)C(=O)N[C@@H](CCCCN)C(=O)N[C@H](C(=O)N[C@@H](Cc1c[nH]cn1)C(=O)N[C@@H](CCC(N)=O)C(=O)N[C@@H](CCC(N)=O)C(=O)N[C@@H](CC(=O)O)C(=O)N[C@@H](Cc1ccccc1)C(=O)N[C@H](C(=O)N[C@@H](CCC(N)=O)C(=O)N[C@@H](Cc1c[nH]c2ccccc12)C(=O)N[C@@H](CC(C)C)C(=O)N[C@@H](CC(C)C)C(=O)N[C@@H](C)C(=O)N[C@@H](CCC(N)=O)C(=O)N[C@@H](CCCCN)C(=O)N1CCC[C@H]1C(=O)N[C@@H](CO)C(=O)N[C@@H](CO)C(=O)NCC(=O)N[C@@H](C)C(=O)N1CCC[C@H]1C(=O)N1CCC[C@H]1C(=O)N1CCC[C@H]1C(=O)N[C@@H](CO)C(N)=O)C(C)C)[C@@H](C)CC [0601 GIP48 46],Basal Glucose Lowering at 80 nmol/Kg,[1],"-6%, AUC2 40"
CC[C@H](C)[C@H](NC(=O)[C@H](CO)NC(=O)[C@H](Cc1ccc(O)cc1)NC(=O)[C@H](CC(=O)O)NC(=O)[C@H](CO)NC(=O)[C@@H](NC(=O)[C@H](Cc1ccccc1)NC(=O)[C@@H](NC(=O)CNC(=O)[C@H](CCC(=O)O)NC(=O)[C@@H](C)NC(=O)[C@@H](N)Cc1ccc(O)cc1)[C@@H](C)O)[C@@H](C)CC)C(=O)N[C@@H](C)C(=O)N[C@@H](CC(C)C)C(=O)N[C@@H](CC(=O)O)C(=O)N[C@@H](CCCCN)C(=O)N[C@H](C(=O)N[C@@H](CCCNC(=N)N)C(=O)N[C@@H](CCC(N)=O)C(=O)N[C@@H](CCC(N)=O)C(=O)N[C@@H](CCC(=O)O)C(=O)N[C@@H](Cc1ccccc1)C(=O)N[C@H](C(=O)N[C@@H](CC(N)=O)C(=O)N[C@@H](Cc1c[nH]c2ccccc12)C(=O)N[C@@H](CC(C)C)C(=O)N[C@@H](CC(C)C)C(=O)N[C@@H](C)C(=O)N[C@@H](CCC(N)=O)C(=O)N[C@@H](CCCCN)C(=O)N1CCC[C@H]1C(=O)N[C@@H](CCCCN)C(=O)N[C@@H](CCCCN)C(=O)N[C@H](C(=O)N[C@@H](CCCNC(=N)N)C(=O)N[C@@H](Cc1ccc(O)cc1)C(=O)N[C@@H](CO)C(N)=O)[C@@H](C)CC)C(C)C)[C@@H](C)CC [0601GIP4539],Basal Glucose Lowering at 80 nmol/Kg,[1],"-5%, AUC240"
CC[C@H](C)[C@H](NC(=O)[C@H](CO)NC(=O)[C@H](Cc1ccc(O)cc1)NC(=O)[C@H](CC(=O)O)NC(=O)[C@H](CO)NC(=O)[C@@H](NC(=O)[C@H](Cc1ccccc1)NC(=O)[C@@H](NC(=O)CNC(=O)[C@H](CCC(=O)O)NC(=O)[C@@H](C)NC(=O)[C@@H](N)Cc1ccc(O)cc1)[C@@H](C)O)[C@@H](C)CC)C(=O)N[C@@H](C)C(=O)N[C@@H](CCSC)C(=O)N[C@@H](CC(=O)O)C(=O)N[C@@H](CCCCN)C(=O)N[C@H](C(=O)N[C@@H](Cc1c[nH]cn1)C(=O)N[C@@H](CCC(N)=O)C(=O)N[C@@H](CCC(N)=O)C(=O)N[C@@H](CC(=O)O)C(=O)N[C@@H](Cc1ccccc1)C(=O)N[C@H](C(=O)N[C@@H](CC(N)=O)C(=O)N[C@@H](Cc1c[nH]c2ccccc12)C(=O)N[C@@H](CC(C)C)C(=O)N[C@@H](CC(C)C)C(=O)N[C@@H](C)C(=O)N[C@@H](CCC(N)=O)C(=O)N[C@@H](CCCCN)C(=O)N1CCC[C@H]1C(=O)N[C@@H](CO)C(=O)N[C@@H](CO)C(=O)NCC(=O)N[C@@H](C)C(=O)N1CCC[C@H]1C(=O)NCC(=O)N1CCC[C@H]1C(=O)N[C@@H](CO)C(N)=O)C(C)C)[C@@H](C)CC [0601 GIP49 52],Basal Glucose Lowering at 80 nmol/Kg,[1],"-1, AUC2 40%"
